From patent US20040253251A1 (priority 2003, published 2004)
Like-named read-outs stand apart in the source and are kept apart here.

Assays:
[1] = test system: human ovarian cancer cells transplanted into mice; assay: Tumor growth in mouse model of human ovarian cancer (orthotopic transplant), Example 6; assay type: in vivo; conditions: 31st day from tumor inoculation; 30 consecutive days; AY/NY 0.3 ml oral once per day, TSPA 1.5 mg/kg/day i.v.
Source text: Numerous animal studies have reported the use of orthotopic transplant technique in female mouse models to study the treating of ovarian cancer. See, for example, Animals for Experiments and Experimental Techniques, Chinese Medical Publisher, 1997. The use of orthotopic transplant technique has been highly successful in the development of mouse models of human ovarian cancer.
The human ovarian cancer sample is carefully selected before, during, and after surgery in order to ensure transplant occurred at the equivalent position in the mouse. The ovarian cancer sample is obtained from patients who have not received any radiation, chemotherapy, or immune enhancement treatment.
The mouse were starved for 24 hours before the surgery. The animals were generally anaesthetized. The barbiturates was first diluted in saline and then injected at 0.3 to 0.4 ml per animal, or 30 mg per kg body weight, into the abdomen of the mice. Under sterile conditions, a 1 cm long opening in the body cavity was cut along the right rib of the mice for engraftment of the tumor. About 10^6 units of tumor cells (about 2 mg tumor pieces per ml culture medium) were transplanted. Afterwards, the opening was sutured and the mice were put back into the cage. The animals were allowed to grow for three to five weeks or when the tumor grows to about 1 to 2 cm^3 in size. […]

[2] = test system: human ovarian cancer cells transplanted into mice; assay: Survival over 6 months in mouse model of human ovarian cancer, Example 7; assay type: in vivo; conditions: for Number of live animals remaining in the groups after 30 days of treatment: 30 mice per group
Protocol: In group 2TSPA, the mice were injected intravenously with 1.5 mg of thiotepa (TSPA) per kg body weight per day.

[3] = test system: ovarian tumor cells injected subcutaneously; conditions: 31st day from tumor inoculation; 30 consecutive days; AY/NY 0.3 ml oral once per day, CTX 30 mg/kg/day s.c.
Protocol: (§1) The biological composition comprising 10^8 cells per ml of activated and conditioned yeast cells of the strain Saccharomyces cerevisiae Hansen strain AS2.502 was prepared by the methods described in Section 5.1 and subsections therein
The mice injected with tumor cells were kept for 5 days and then were divided into 4 experimental groups of ten mice per group and one control group. The four experimental groups were triplicated (i.e., using a total of 120 mice in the experimental groups).
The mice received the biological compositions, untreated yeast cells, CTX or saline on the same day as the tumor cells were transplanted. The mice in group CK2 also started receiving saline on the same day as the other four groups. The biological compositions, untreated yeast cells and saline were administered orally by a feeding tube and the CTX by subcutaneous injection for 30 consecutive days. […] The weight of the mice and the weight of the tumor were determined by standard techniques.

[4] = test system: ovarian tumor cells injected subcutaneously; conditions: for Number of live animals remaining in the groups after 30 days of treatment: 30 mice per group
Protocol: The survival time of mice after tumor injection and treatment was studied.
as §1
The animals were prepared in a similar manner as described in Section 8.1.
The mice injected with tumor cells were kept for 5 days and then were divided into 4 experimental groups of ten mice per group and one control group. The four experimental groups were triplicated (i.e., using a total of 120 mice in the experimental groups). In group 2AY, the mice received 0.3 ml of the biological composition once per day. In group 2NY, the mice received 0.3 ml of the untreated yeast cells once per day. In group 2CTX, the mice were injected subcutaneously with […] of cyclophosphamide (CTX) per kg body weight per day. In group 2CK1, the mice received 0.3 ml of physiological saline once per day.
The mice received the biological compositions, untreated yeast cells, CTX or saline on the same day as the tumor cells were transplanted. Mice in group 2CK2 also started receiving saline on the same day as the other four groups. The biological compositions, untreated yeast cells and saline were administered orally by a feeding tube and the CTX by subcutaneous injection for 30 consecutive days. The mice were observed over 6 months from the day of tumor inoculation and survival was recorded. The weight of the mice and the weight of the tumor were determined by standard techniques.

[5] = 2 months after cessation of treatment
[6] = 3 months after cessation of treatment
[7] = 4 months after cessation of treatment
[8] = 5 months after cessation of treatment
[9] = 6 months after cessation of treatment
[10] = mice that survived the 6 months observation

`S=P(N1CC1)(N1CC1)N1CC1` [TSPA, thiotepa] was tested, and the “mean weight of mice and standard deviation” value [1] was 21 ± 2.1 g, the “mean weight of tumor nodules and standard deviation” value [1] was 3.1 ± 0.8 mg and the “Number of live animals remaining in the groups after 30 days of treatment” value (“Number of live animals remaining” below) ([2]; 0 month after cessation of treatment, 2AY/2NY 0.3 ml oral per day, 2TSPA 1.5 mg/kg/day i.v.) was 30. The “Number of live animals remaining” value ([2]; 1 month after cessation of treatment) was 24, the “Number of live animals remaining” value [2, 5] was 7 and the “Number of live animals remaining” value [2, 6] was 2. For the same compound, the “Number of live animals remaining” value [2, 7] was 0, the “Number of live animals remaining” value [2, 8] was 0 and the “Number of live animals remaining” value [2, 9] was 0. The “survival outcome during the experiment” value ([2]; in words, 6 months observation, 2NY 0.3 ml per day, 2TSPA 1.5 of thiotepa per kg per day) was “all died”, the “mean weight of mice and standard deviation” value [2, 10] was “all animals dead” and the “mean weight of tumor nodules and standard deviation” value [2, 10] was “all animals dead”.

`O=P1(N(CCCl)CCCl)NCCCO1` (centres unmarked) [CTX, cyclophosphamide] was tested, and the “mean weight of mice and standard deviation” value [3] was 20 ± 2.3 g, the “mean weight of tumor nodules and standard deviation” value [3] was 3.3 ± 1.4 g and the “Number of live animals remaining” value ([4]; 1 month after cessation of treatment, 2AY/2NY 0.3 ml oral per day, 2CTX 305 mg/kg/day s.c. (30 mg)) was 30. The “Number of live animals remaining” value [4, 5] was 30, the “Number of live animals remaining” value [4, 6] was 23 and the “Number of live animals remaining” value [4, 7] was 14. For the same compound, the “Number of live animals remaining” value [4, 8] was 9, the “Number of live animals remaining” value [4, 9] was 0 and the “survival outcome during the experiment” value ([4]; in words, 6 months observation, 2NY 0.3 ml per day, 2CTX 30 mg/kg per day) was “all died”. For the same compound, the “mean weight of mice and standard deviation” value [4, 10] was “all animals dead” and the “mean weight of tumor nodules and standard deviation” value [4, 10] was “all animals dead”.
